Source: US20220267394A1, “COMPOUNDS FOR INDUCING TISSUE FORMATION AND USES THEREOF” (HISTIDE AG, priority 2015, published 2022)

These substances were tested on hMSCs (assay: Loss of stemness: STRO-1 expression by immunostaining). Details: Table 6, previously reported peptides in solution, 400 ng/mL.
Assay type: cell-based, human
Method: The cells were first fixed for 20 min with 4% paraformaldehyde/PBS at 4° C. After fixation, the cells were permeabilized in PBS containing 1% Triton X-100 for 15 min. Runx2, Osterix, Stro-1, Vinculin, Phalloidin, Osteopontin, Sox2, Sox9 antibodies were visualized by treating the cells with 1% (v/v) specific monoclonal antibodies for 1 hour at 37° C. Then the samples were incubated with Alexa Fluor® 568 or 647 (F(ab′)2 fragment of IgG(H+L)) during 30 min at room temperature. The cell nuclei were counterstained in 20 ng/mL DAPI for 10 min at room temperature.
For this type of quantification the freeware image analysis ImageJ® software was used. The raw image was first converted to an 8-bit file, and then the unsharp mask feature was used (settings 1:0.2) to remove the image background (rolling ball radius 10). After smoothing, the resulting image, which appears similar to the original photomicrograph but with minimal background, was then converted to a binary image by setting a threshold. Threshold values were determined empirically by selecting a setting, which gave the most accurate binary image for a subset of randomly selected photomicrographs. The cell area was determined by manual delineation on raw fluorescent images. Total contact area and mean contact area per cell were calculated by “analyse particules” in ImageJ®. A minimum of 30 cells per condition were analyzed. Stro-1, CD-34+, and CD-105 expressions were determined using this procedure.
hMSCs were cultured on conventional cell culture plastic plates with or without the presence in the cell culture media of different GFR-binding compounds as described herein (SEQ ID NO: 50 to 88) in solution. […] This was probed by Stro-1 immunostaining after cell fixation as described in the Methods section. The quantification of Stro-1 positive contact numbers and areas was performed as described in the Methods section. A minimum of 30 cells per condition were analyzed. Stro-1 positive marrow cells are multipotential and capable of differentiating into multiple mesenchymal lineages including stromal cells with a phenotype resembling vascular smooth muscle cells that can support hematopoiesis, adipocytes, osteoblasts, and chondrocytes.
Using the method detailed in the description, the RMSD of 57 previously reported peptide sequences have been determined (Table 6) and correlated with the expression of STRO-1 in solution. […] One should note that it is commonly admitted that the expression of STRO-1 in a cell is indicative of a cell that is in a substantially non-differentiated state and the decrease of its expression of at least about 20% is indicative of a cell that has started a process of differentiation but which may not result in the differentiation of the cell. A decrease of more than 50% would be indicative of the presence of a significant shift towards a differentiated state. A decrease of more than 70% would be indicative of the presence of a very important shift towards a differentiated state. A sustained decrease (e.g. for at least 96 h) of more than 50% or 70% would be indicative of the presence of an even more important shift towards a differentiated state.
Likewise, using the method detailed in the description, the RMSD of 75 GFR-binding peptide sequence representatives of the invention have been determined (Table 8) and correlated with the expression of STRO-1. SEQ ID NO: 1 to 49 were tested in combination with a bioactive carrier as defined above in the Examples Section (i.e. titanium, ceramics, collagen, etc. . . . ), whereas SEQ ID NO: 2242 to 2267 were tested in solution.

Substance	STRO-1 expression (%)
2160 (PIIYYVGRNVRVEQLSNMVVRRA; Comparative sequence) [compound 2160]	98
2161 (DPLPIIYYVGRNVRVEQLSNMVVRACKCS; Comparative sequence) [compound 2161]	97
2162 (ENVNLKKYRNMIVKSCGCH; Peptide reported in US20040039543, SEQ ID NO:107) [compound 2162]	97
2163 (TPTYSRPVQKAELTR; Peptide reported in US20130332133, SEQ ID NO:16645) [compound 2163]	97
2164 (HIRSTTSSYVSLKSNITNRTIQTPTYSYT; Peptide reported in US20120216318, SEQ ID NO:347659) [compound 2164]	98
2165 (LMDLARMPSCLRGERAVPQDTTGYFTWSSNITPLNFIF; Peptide reported in US20110300149, SEQ ID NO:32) [compound 2165]	92
2166 (NEVLRFCGIQVPEGDEPLT; Peptide reported in WO2013040142, SEQ ID NO:101213) [compound 2166]	98
2167 (LNEVLRFCGIQVPEGDEPLTY; Peptide reported in WO2013040142, SEQ ID NO:89702) [compound 2167]	99
2168 (MSRVLFEPLTFLQTGSGLPDEKTLG; Peptide reported in US20080081768, SEQ ID NO:28800) [compound 2168]	94
2169 (IKSPARHSAPTHQEPLP; Peptide reported in WO2013040142, SEQ ID NO:3157977) [compound 2169]	98
2170 (NPGASASPCCVSQDLEPLPIL; Peptide reported in JP06025288, SEQ ID NO:8) [compound 2170]	86
2171 (SHQSAGDSIKSPARHSAPTHQEPLPD; Peptide reported in WO2013040142, SEQ ID NO:3137100) [compound 2171]	91
2172 (PNYSVPAGNKPLSERE; Peptide reported in WO2013040142, SEQ ID NO:543064) [compound 2172]	95
2173 (TKPLSSLLFPNWNTTTTPTPPRP; Peptide reported in WO2013040142, SEQ ID NO:866827) [compound 2173]	91
2174 (CVTKPLSSLLFPNWNTTTTPTPP; Peptide reported in WO2013040142, SEQ ID NO:642255) [compound 2174]	92
2175 (VGAAWWLREQGSPINTLAVPA; Peptide reported in WO2013040142, SEQ ID NO:133294) [compound 2175]	88
2176 (MQCRELVTQVTEEPISQTEDGEEQESTTTPRLKGQKKE; Peptide reported in US20070083334, SEQ ID NO:958173) [compound 2176]	85
2177 (VPTKLEPISVLYKDDMGVPTLKYHYEGMAVSECGCR; Peptide reported in US8969040, SEQ ID NO:89) [compound 2177]	81
2178 (SPISILVVPELDASLPEKRPSLDGFEALLVYNAPKA; Peptide reported in US20120246748, SEQ ID NO:119912) [compound 2178]	82
2179 (TLXPIVSSXNPSPISFRXIKILLHDLEVVPFPKSRVR; Peptide reported in US20040031072, SEQ ID NO:272830; MOD_RES (3), (9), (18): Xaa is A) [compound 2179]	84
2180 (VPTKLSPISILYLDKGVVTYKFKYEGMSVAECGCR; Peptide reported in US8969040, SEQ ID NO:90) [compound 2180]	80
2181 (VPTKLSPISILYKDDMGVPTYKFKYEGMSVAECGCR; Peptide reported in US20140056902, SEQ ID NO:88) [compound 2181]	82

Substance	STRO-1 expression (%)
2182 (VPTELSPISLLYLDEFEKVTLKNYQDMVVDG; Peptide reported in US20120244575, SEQ ID NO:4324) [compound 2182]	87
2183 (TPTVVSATSL; Peptide reported in US20150153356, SEQ ID NO:51419) [compound 2183]	98
2184 (SATSRLALSDVPAELAA; Peptide reported in WO2013040142, SEQ ID NO:729730) [compound 2184]	98
2185 (LGIAAIIFLQQVPAAFSATSPPG; Peptide reported in WO2013040142, SEQ ID NO:1139935) [compound 2185]	97
2186 (SVPAVCSATSATGPYSSVTVTSWPSIVATGGTT; Peptide reported in EP1687419, SEQ ID NO:42) [compound 2186]	92
2187 (SVPAVCSATSATGPYSTATNTVWPSIVATGGTT; Peptide reported in EP1687419, SEQ ID NO:43) [compound 2187]	92
2188 (SSVPAVCSATSATGPYSSGSVEVTFDVYATTVY; Peptide reported in EP1687419, SEQ ID NO:45) [compound 2188]	92
2189 (SSVPAVCSATSATGPYSTATNTVWFDVYATTVY; Peptide reported in EP1687419, SEQ ID NO:46) [compound 2189]	91
2190 (VHLLKPHAVPKACCAPTKLSATSVLYYDSSNNVILRKHRNMVVRACGCH; Peptide reported in US5688678, SEQ ID NO:8) [compound 2190]	88
2191 (ANINKDRDNVPAATSSLSKAYNP; Peptide reported in WO2013040142, SEQ ID NO:2326359) [compound 2191]	92
2192 (SFRTARANAPTGRSSLSGEKEQQEASTHS; Peptide reported in WO2013040142, SEQ ID NO:3136558) [compound 2192]	91
2193 (DKPEESSSTPTHAQCICSSLSEAIVSSVLSTRLVLSQISLTRAKRAFE; Peptide reported in US20130333061, SEQ ID NO:139889) [compound 2193]	87
2194 (KGSEYEKLVVSGITQVYQSSLSWHGCKSCCEVQVXNLXILIRLYDVHYYN; Peptide reported in US20040172684, SEQ ID NO:47782; MOD_RES (35), (38): Xaa is A) [compound 2194]	88
2195 (MALPQPRGSSLSKAPVVVAPCMALKRVNIRSIVFEVLKTMNQNCIHETPN; Peptide reported in US20130333061, SEQ ID NO:158498) [compound 2195]	82
2196 (MAAQDEWRDAITLTMGRDLKKVPQHLNAISVIDPVT; Peptide reported in US20120246748, SEQ ID NO:111359) [compound 2196]	83
2197 (LSLLAPPEPVWNHETSYGSDCHVPTNVNAISKMIDKSNHQTG; Peptide reported in US20140130203, SEQ ID NO:119179) [compound 2197]	93
2198 (APTKLNAISVLYFDDSSNVILKKYRNMIVKS; Peptide reported in US20120244575, SEQ ID NO:4530) [compound 2198]	84
2199 (APTQLSAISVL; Peptide reported in US20050250936, SEQ ID NO:71) [compound 2199]	93
2200 (FDSRVLKSAISFKENIIF; Peptide reported in WO2013040142, SEQ ID NO:2935795) [compound 2200]	89
2201 (KIPKPSSAPTELSAISMC; Peptide reported in WO2009151288, SEQ ID NO:7) [compound 2201]	78
2202 (CPKPSSAPTELSAISMLL; Peptide reported in WO2009151288, SEQ ID NO:3) [compound 2202]	79
